Assay results published in ChEMBL document CHEMBL4477260, “Arylazolyl(azinyl)thioacetanilides. Part 20: Discovery of novel purinylthioacetanilides derivatives as potent HIV-1 NNRTIs via a structure-based bioisosterism approach” (Bioorg Med Chem, 2016).

Tests used:
[1] = test system: Human immunodeficiency virus 1; assay: Antiviral activity against human HIV-1 3B infected in human MT4 cells assessed as protection from virus-induced cytopathic effect measured 5 days post infection by MTT assay; assay type: functional, organism-based; conditions: Human immunodeficiency virus 1, 3B, MT4, 120 h
[2] = test system: Human immunodeficiency virus 1; assay: Antiviral activity against human HIV-1 3B harboring RES056 mutant infected in human MT4 cells assessed as protection from virus-induced cytopathic effect measured 5 days post infection by MTT assay; assay type: functional, organism-based; conditions: Human immunodeficiency virus 1, 3B, MT4, 120 h
[3] = Selectivity index, ratio of CC50 for mock-infected human MT4 cells to EC50 for human HIV-1 3B harboring RES056 mutant infected in human MT4 cells; assay type: toxicity, cell-based; conditions: MT4 cells (mock-infected for CC50, HIV-1-infected for EC50)
[4] = Cytotoxicity against mock-infected human MT4 cells assessed as reduction of cell viability after 5 days by MTT assay; assay type: cell-based
[5] = Selectivity index, ratio of CC50 for mock-infected human MT4 cells to EC50 for human HIV-1 3B infected in human MT4 cells; assay type: toxicity, cell-based; conditions: MT4 cells (mock-infected for CC50, HIV-1-infected for EC50)
[6] = target: Human immunodeficiency virus type 1 reverse transcriptase (Human immunodeficiency virus 1, UniProt Q72547); assay: Inhibition of HIV-1 reverse transcriptase assessed as reduction in biotin-duTP incorporation using biotin-labeled dUTP and hybrid poly(A)-oligo (dT)15 template primer after 2 hrs by ELISA
[7] = test system: Human immunodeficiency virus 1; assay: Antiviral activity against human HIV-1 3B harboring reverse transcriptase Y181C mutant infected in human MT4 cells assessed as protection from virus-induced cytopathic effect measured 5 days post infection by MTT assay; assay type: functional, organism-based; conditions: Human immunodeficiency virus 1, 3B, MT4, 120 h
[8] = test system: Human immunodeficiency virus 1; assay: Antiviral activity against human HIV-1 3B harboring reverse transcriptase F227L/V106A double mutant infected in human MT4 cells assessed as protection from virus-induced cytopathic effect measured 5 days post infection by MTT assay; assay type: functional, organism-based; conditions: Human immunodeficiency virus 1, 3B, MT4, 120 h
[9] = test system: Human immunodeficiency virus 1; assay: Antiviral activity against human HIV-1 3B harboring reverse transcriptase L100I mutant infected in human MT4 cells assessed as protection from virus-induced cytopathic effect measured 5 days post infection by MTT assay; assay type: functional, organism-based; conditions: Human immunodeficiency virus 1, 3B, MT4, 120 h
[10] = test system: Human immunodeficiency virus 1; assay: Antiviral activity against human HIV-1 3B harboring reverse transcriptase K103N mutant infected in human MT4 cells assessed as protection from virus-induced cytopathic effect measured 5 days post infection by MTT assay; assay type: functional, organism-based; conditions: Human immunodeficiency virus 1, 3B, MT4, 120 h
[11] = Selectivity index, ratio of CC50 for mock-infected human MT4 cells to EC50 for human HIV-1 3B harboring K103N mutant infected in human MT4 cells; assay type: toxicity, cell-based; conditions: MT4 cells (mock-infected for CC50, HIV-1-infected for EC50)
[12] = test system: Human immunodeficiency virus 1; assay: Antiviral activity against human HIV-1 3B harboring reverse transcriptase E138K mutant infected in human MT4 cells assessed as protection from virus-induced cytopathic effect measured 5 days post infection by MTT assay; assay type: functional, organism-based; conditions: Human immunodeficiency virus 1, 3B, MT4, 120 h
[13] = Selectivity index, ratio of CC50 for mock-infected human MT4 cells to EC50 for human HIV-1 3B harboring Y188L mutant infected in human MT4 cells; assay type: toxicity, cell-based; conditions: MT4 cells (mock-infected for CC50, HIV-1-infected for EC50)
[14] = test system: Human immunodeficiency virus 1; assay: Antiviral activity against human HIV-1 3B harboring reverse transcriptase Y188L mutant infected in human MT4 cells assessed as protection from virus-induced cytopathic effect measured 5 days post infection by MTT assay; assay type: functional, organism-based; conditions: Human immunodeficiency virus 1, 3B, MT4, 120 h
[15] = Selectivity index, ratio of CC50 for mock-infected human MT4 cells to EC50 for human HIV-1 3B harboring L100I mutant infected in human MT4 cells; assay type: toxicity, cell-based; conditions: MT4 cells (mock-infected for CC50, HIV-1-infected for EC50)
[16] = Selectivity index, ratio of CC50 for mock-infected human MT4 cells to EC50 for human HIV-1 3B harboring E138K mutant infected in human MT4 cells; assay type: toxicity, cell-based; conditions: MT4 cells (mock-infected for CC50, HIV-1-infected for EC50)
[17] = Selectivity index, ratio of CC50 for mock-infected human MT4 cells to EC50 for human HIV-1 3B harboring F227L/V106A double mutant infected in human MT4 cells; assay type: toxicity, cell-based; conditions: MT4 cells (mock-infected for CC50, HIV-1-infected for EC50)
[18] = Selectivity index, ratio of CC50 for mock-infected human MT4 cells to EC50 for human HIV-1 3B harboring Y181C mutant infected in human MT4 cells; assay type: toxicity, cell-based; conditions: MT4 cells (mock-infected for CC50, HIV-1-infected for EC50)

| SMILES | EC50 [1] [µM] | EC50 [2] [µM] | selectivity ratio [3] | CC50 at 120 h [4] [µM] | selectivity ratio [5] | further results |
| --- | --- | --- | --- | --- | --- | --- |
| COC(=O)c1ccc(NC(=O)CSc2nc3cnc(Cl)nc3n2-c2cccc3ccccc23)c(Br)c1 | 1.66 | > 156 | < 1 | 156 | 94 |  |
| NC(=O)c1ccc(NC(=O)CSc2nc3cnc(Cl)nc3n2-c2ccc(C3CC3)c3ccccc23)c(Cl)c1 | > 6.39 |  |  | 6.39 | < 1 |  |
| Cc1ccnc2c1NC(=O)c1cccnc1N2C1CC1 [NEVIRAPINE] |  |  |  | ≥ 15 |  |  |
| CC(Sc1nc2cnc(Cl)nc2n1-c1ccc(C2CC2)c2ccccc12)C(=O)Nc1ccc(S(N)(=O)=O)cc1Cl (stereo not drawn) | 4.04 | ≥ 5.74 | ≤ 3 | 17.6 | 4 |  |
| CC(Sc1nc2cnc(Cl)nc2n1-c1cccc2ccccc12)C(=O)Nc1ccc(S(N)(=O)=O)cc1Br (stereo not drawn) | 0.78 | > 19 | < 1 | 19 | 24 | IC50 [6]: 6.42 µM |
| NS(=O)(=O)c1ccc(NC(=O)CSc2nc3cnc(Cl)nc3n2-c2ccc(C3CC3)c3ccccc23)cc1 | 18.7 | > 113 | < 1 | 113 | 6 |  |
| NS(=O)(=O)c1ccc(NC(=O)CSc2nc3cnc(Cl)nc3n2-c2cccc3ccccc23)cc1 | 4.46 | > 104 | < 1 | 104 | 23 |  |
| O=C1Nc2ccc(Cl)cc2[C@@](C#CC2CC2)(C(F)(F)F)O1 [EFAVIRENZ] |  |  |  | ≥ 6.34 |  |  |
| CC(Sc1nc2cnc(Cl)nc2n1-c1ccc(C2CC2)c2ccccc12)C(=O)Nc1ccc(S(N)(=O)=O)cc1Br (stereo not drawn) | 2.75 | > 15.9 | 1 | 15.9 | 6 |  |
| NC(=O)c1ccc(NC(=O)CSc2nc3cnc(Cl)nc3n2-c2cccc3ccccc23)cc1 | ≥ 28.8 | > 156 | < 1 | 156 | ≤ 5 |  |
| O=C(CSc1nc2cnc(Cl)nc2n1-c1cccc2ccccc12)Nc1ccc(C(F)(F)F)cc1 | > 14.3 |  |  | 14.2 | < 1 |  |
| NC(=O)c1ccc(NC(=O)CSc2nc3cnc(Cl)nc3n2-c2cccc3ccccc23)c(Cl)c1 | 4.56 | > 22.7 | < 1 | 22.7 | 5 |  |
| Cc1cc(C#N)cc(C)c1Oc1nc(Nc2ccc(C#N)cc2)nc(N)c1Br [ETRAVIRINE] | 0.00335 |  |  | 2.46 |  | EC50 [7]: 0.015 µM |
| NC(=O)c1ccc(NC(=O)CSc2nc3cnc(Cl)nc3n2-c2ccc(C3CC3)c3ccccc23)c(Br)c1 | > 11.2 |  |  | 11.2 | < 1 |  |
| CC(Sc1nc2cnc(Cl)nc2n1-c1ccc(C2CC2)c2ccccc12)C(=O)Nc1ccc(C(N)=O)cc1Cl (stereo not drawn) | > 25.1 |  |  | 25.1 | < 1 |  |
| COC(=O)c1ccc(NC(=O)CSc2nc3cnc(Cl)nc3n2-c2ccc(C3CC3)c3ccccc23)c(Br)c1 | > 153 |  |  | 153 | < 1 |  |
| CCOC(=O)c1ccc(NC(=O)CSc2nc3cnc(Cl)nc3n2-c2ccc(C3CC3)c3ccccc23)c(Br)c1 | > 150 |  |  | 150 | < 1 |  |
| CC(Sc1nc2cnc(Cl)nc2n1-c1ccc(C2CC2)c2ccccc12)C(=O)Nc1ccc(C(N)=O)cc1Br (stereo not drawn) | 7.22 | 22.2 | 10 | 55.9 | 8 | EC50 [8]: > 55.8 µM; EC50 [9]: 5.64 µM; EC50 [10]: ≥ 48.1 µM; selectivity ratio [11]: ≤ 1; EC50 [12]: ≥ 65.1 µM; selectivity ratio [13]: < 1; EC50 [14]: > 55.8 µM; selectivity ratio [15]: 8; selectivity ratio [16]: ≤ 1; selectivity ratio [17]: < 1; EC50 [7]: > 55.8 µM; selectivity ratio [18]: < 1 |
| CC(Sc1nc2cnc(Cl)nc2n1-c1cccc2ccccc12)C(=O)Nc1ccc(C(N)=O)cc1Br (stereo not drawn) | 1.86 | > 21.8 | < 1 | 21.8 | 12 |  |
| O=C(CSc1nc2cnc(Cl)nc2n1-c1ccc(C2CC2)c2ccccc12)Nc1ccc(C(F)(F)F)cc1 | > 16.2 |  | < 1 | 16.2 | < 1 |  |
| CCOC(=O)c1ccc(NC(=O)CSc2nc3cnc(Cl)nc3n2-c2cccc3ccccc23)c(Br)c1 | 3.43 | > 109 | < 1 | 109 | 32 |  |
| CC(C)Nc1cccnc1N1CCN(C(=O)c2cc3cc(NS(C)(=O)=O)ccc3[nH]2)CC1 [DELAVIRDINE] | 0.0383 |  |  | 36.8 |  | selectivity ratio [11]: 12; selectivity ratio [13]: 44; selectivity ratio [15]: 14; selectivity ratio [16]: 715; selectivity ratio [17]: 16; selectivity ratio [18]: 15 |
| CC(Sc1nc2cnc(Cl)nc2n1-c1cccc2ccccc12)C(=O)Nc1ccc(S(N)(=O)=O)cc1Cl (stereo not drawn) | 1.07 | > 21.5 | < 1 | 21.5 | 20 |  |
| NC(=O)c1ccc(NC(=O)CSc2nc3cnc(Cl)nc3n2-c2cccc3ccccc23)c(Br)c1 | 1.8 | > 21.6 | < 1 | 21.6 | 12 |  |
| CC(Sc1nc2cnc(Cl)nc2n1-c1cccc2ccccc12)C(=O)Nc1ccc(C(N)=O)cc1Cl (stereo not drawn) | 2.73 | > 23.6 | < 1 | 23.6 | 9 |  |
